Article PMC7882986, “Simultaneous blocking of the pan‐RAF and S100B pathways as a synergistic therapeutic strategy against malignant melanoma” (Journal of Cellular and Molecular Medicine, 2020)

Test system: p53 transcription activity
Test: p53 luciferase reporter assay in A375 cells
Assay type: cell-based, human
Settings: 0.5 μM alone, 12 h
Protocol: Transient transfection: A375 cells were seeded in a culture dish overnight before transfection. p53-luciferase plasmid, and TurboFect reagent were mixed together in Dulbecco's modified eagle medium (DMEM) without FBS and the resulting solution was incubated for 20 min at 37 °C. The mixture was then added to the A375 cells in the wells. The cells were incubated for 12 h at 37 °C in a CO2 incubator before use.
Briefly, A375 cells were seed at a density of 6 × 10^5 cell in a culture dish overnight. The cells were co-transfected with p53-luciferase plasmid in serum-free DMEM medium using TurboFect Transfection Reagent. Then, the transfected cells were seeded in a 24-well plate and treated with an indicated concentration of 1 in 1% FBS medium for 6h. The transfected cells were lysed by the addition of 160 μL Passive Lysis Buffer (PLB). 50 μL of the cell lysates were transferred to a 96-well white plate followed by adding 50 μL of luciferase reporter reagent (LAR). The transcriptional activity was determined by measuring the activity of firefly luciferase in SpectraMax M5 microplate reader (Molecular Devices).

With `CCCS(=O)(=O)Nc1ccc(F)c(C(=O)c2c[nH]c3ncc(-c4ccc(Cl)cc4)cc23)c1F` [vemurafenib, reference compound] the “p53 transcription activity, single agent” value was “negligible effect”.
